# Results as given in US10472336B2, “Modulators of indoleamine 2,3-dioxygenase” (GlaxoSmithKline Intellectual Property (No.2) Limited, priority 2015, dated 2019).
# Counter-ions that a name gives are not always drawn.
# Assays:
# [1] = molecular target: T1, indoleamine 2, 3-dioxygenase (IDO1) (Homo sapiens, UniProt P14902); test: PBMC IDOi assay (kynurenine detection by mass spectrometry); format: cell-based; details: IFN-γ and LPS stimulated human PBMC, 2 days
# Method: (§1) Compounds of the present invention were tested via high-throughput cellular assays utilizing detection of kynurenine via mass spectrometry and cytotoxicity as end-points. For the mass spectrometry and cytotoxicity assays, human peripheral blood mononuclear cells (PBMC) (PB003F; AllCells®, Alameda, Calif.) were stimulated with human interferon-γ (IFN-γ) (Sigma-Aldrich Corporation, St. Louis, Mo.) and lipopolysaccharide from Salmonella minnesota (LPS) (Invivogen, San Diego, Calif.) to induce the expression of indoleamine 2, 3-dioxygenase (IDO1). Compounds with IDO1 inhibitory properties decreased the amount of kynurenine produced by the cells via the tryptophan catabolic pathway. Cellular toxicity due to the effect of compound treatment was measured using CellTiter-Glo® reagent (CTG) (Promega Corporation, Madison, Wis.), which is based on luminescent detection of ATP, an indicator of metabolically active cells.
# (§2) In preparation for the assays, test compounds were serially diluted 3-fold in DMSO from a typical top concentration of 5 mM and plated at 0.5 μL in 384-well, polystyrene, clear bottom, tissue culture treated plates with lids (Greiner Bio-One, Kremsmünster, Austria) to generate 11-point dose response curves. Low control wells (0% kynurenine or 100% cytotoxicity) contained either 0.5 μL of DMSO in the presence of unstimulated (−IFN-γ/−LPS) PBMCs for the mass spectrometry assay or 0.5 μL of DMSO in the absence of cells for the cytotoxicity assay, and high control wells (100% kynurenine or 0% cytotoxicity) contained 0.5 μL of DMSO in the presence of stimulated (+IFN-γ/+LPS) PBMCs for both the mass spectrometry and cytotoxicity assays.
# Frozen stocks of PBMCs were washed and recovered in RPMI 1640 medium (Thermo Fisher Scientific, Inc., Waltham, Mass.) supplemented with 10% v/v heat-inactivated fetal bovine serum (FBS) (Thermo Fisher Scientific, Inc., Waltham, Mass.), and 1× penicillin-streptomycin antibiotic solution (Thermo Fisher Scientific, Inc., Waltham, Mass.). The cells were diluted to 1,000,000 cells/mL in the supplemented RPMI 1640 medium. 50 μL of either the cell suspension, for the mass spectrometry assay, or medium alone, for the cytotoxicity assay, were added to the low control wells, on the previously prepared 384-well compound plates, resulting in 50,000 cells/well or 0 cells/well respectively. IFN-γ and LPS were added to the remaining cell suspension at final concentrations of 100 ng/ml and 50 ng/ml respectively, and 50 μL of the stimulated cells were added to all remaining wells on the 384-well compound plates. The plates, with lids, were then placed in a 37° C., 5% CO2 humidified incubator for 2 days.
# (§3) Following incubation, the 384-well plates were removed from the incubator and allowed to equilibrate to room temperature for 30 minutes. For the cytotoxicity assay, CellTiter-Glo® was prepared according to the manufacturer's instructions, and 40 μL were added to each plate well. After a twenty minute incubation at room temperature, luminescence was read on an EnVision® Multilabel Reader (PerkinElmer Inc., Waltham, Mass.). For the mass spectrometry assay, 10 μL of supernatant from each well of the compound-treated plates were added to 40 μL of acetonitrile, containing 10 μM of an internal standard for normalization, in 384-well, polypropylene, V-bottom plates (Greiner Bio-One, Kremsmünster, Austria) to extract the organic analytes. Following centrifugation at 2000 rpm for 10 minutes, 10 μL from each well of the acetonitrile extraction plates were added to 90 μL of sterile, distilled H2O in 384-well, polypropylene, V-bottom plates for analysis of kynurenine and the internal standard on the RapidFire 300 (Agilent Technologies, Santa Clara, Calif.) and 4000 QTRAP MS (SCIEX, Framingham, Mass.). MS data were integrated using Agilent Technologies' RapidFire Integrator software, and data were normalized for analysis as a ratio of kynurenine to the internal standard. […]
# [2] = molecular target: T1, indoleamine 2, 3-dioxygenase (IDO1); test: HeLa IDOi assay (kynurenine detection by mass spectrometry); format: cell-based; set-up: human epithelial HeLa cells (CCL-2; host or cells: HeLa cells stimulated with human IFN-γ; details: IFN-γ stimulated human epithelial HeLa cells, 2 days
# Method: as §1, with “epithelial HeLa” for “peripheral blood mononuclear”, “(CCL-2; ATCC®, Manassas, Va.)” for “(PBMC) (PB003F; AllCells®, Alameda, Calif.)”, “Mo.)” for “Mo.) and lipopolysaccharide from Salmonella minnesota (LPS) (Invivogen, San Diego, Calif.)”
# as §2, with “(−IFN-γ) HeLa cells” for “(−IFN-γ/−LPS) PBMCs”, “(+IFN-γ) HeLa cells” for “(+IFN-γ/+LPS) PBMCs”
# Frozen stocks of HeLa cells were washed and recovered in DMEM high glucose medium with HEPES (Thermo Fisher Scientific, Inc., Waltham, Mass.) supplemented with 10% v/v certified fetal bovine serum (FBS) (Thermo Fisher Scientific, Inc., Waltham, Mass.), and 1× penicillin-streptomycin antibiotic solution (Thermo Fisher Scientific, Inc., Waltham, Mass.). The cells were diluted to 100,000 cells/mL in the supplemented DMEM medium. 50 μL of either the cell suspension, for the mass spectrometry assay, or medium alone, for the cytotoxicity assay, were added to the low control wells, on the previously prepared 384-well compound plates, resulting in 5,000 cells/well or 0 cells/well respectively. IFN-γ was added to the remaining cell suspension at a final concentration of 10 nM, and 50 μL of the stimulated cells were added to all remaining wells on the 384-well compound plates. The plates, with lids, were then placed in a 37° C., 5% CO2 humidified incubator for 2 days.
# as §3, with “instructions, and 10 μL were” for “instructions, and 40 μL were”
# T1 sequence (P14902 whole entry): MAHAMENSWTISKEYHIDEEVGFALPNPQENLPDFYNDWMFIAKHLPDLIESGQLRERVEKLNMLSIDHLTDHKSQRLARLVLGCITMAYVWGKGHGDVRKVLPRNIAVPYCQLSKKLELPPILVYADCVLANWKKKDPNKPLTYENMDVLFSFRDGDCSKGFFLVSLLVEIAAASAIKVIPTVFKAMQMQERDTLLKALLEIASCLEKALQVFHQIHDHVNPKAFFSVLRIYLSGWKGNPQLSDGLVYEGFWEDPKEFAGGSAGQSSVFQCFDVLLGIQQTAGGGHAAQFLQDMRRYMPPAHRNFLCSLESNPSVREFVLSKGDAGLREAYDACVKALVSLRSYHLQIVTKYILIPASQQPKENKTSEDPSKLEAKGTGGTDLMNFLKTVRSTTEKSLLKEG
EC50 [1],EC50 [2],Structure (SMILES)
0.631 µM,0.398 µM,"CC(C)CN(CC(C)C)c1ccc(C(C)CC(=O)O)cc1Nc1nc2ccccc2o1 (centres unmarked) [Example 1, 3-(3-(benzo[d]oxazol-2-ylamino)-4-(diisobutylamino)phenyl)butanoic acid]"
0.158 µM,0.126 µM,"COc1nccc(Nc2cc(C(C)CC(=O)O)ccc2N(CC(C)C)CC(C)C)n1 (centres unmarked) [Example 12, 3-(4-(diisobutylamino)-3-((2-methoxypyrimidin-4-yl)amino)phenyl)butanoic acid, 2,2,2-trifluoroacetic acid salt]"
0.2 µM,0.316 µM,"CC(C)CN(CC(C)C)c1ccc(C(C)CC(=O)O)cc1Nc1ccncc1 (centres unmarked) [Example 18, 3-(4-(diisobutylamino)-3-(pyridin-4-ylamino)phenyl)butanoic acid]"
0.0501 µM,0.1 µM,"CC(C)CN(c1ccc(C(C)CC(=O)O)cc1NC1CCCCC1)C1CCCCC1 (centres unmarked) [Example 19, 3-(4-(cyclohexyl(isobutyl)amino)-3-(cyclohexylamino)phenyl)butanoic acid]"
0.0501 µM,0.126 µM,"CC(C)CN(c1ccc(C(C)CC(=O)O)cc1NCc1cccs1)C1CCCCC1 (centres unmarked) [Example 20, 3-(4-(cyclohexyl(isobutyl)amino)-3-((thiophen-2-ylmethyl)amino)phenyl)butanoic acid]"
0.251 µM,0.501 µM,"CC(C)CN(c1ccc(C(C)CC(=O)O)cc1NCc1nccs1)C1CCCCC1 (centres unmarked) [Example 21, 3-(4-(cyclohexyl(isobutyl)amino)-3-((thiazol-2-ylmethyl)amino)phenyl)butanoic acid]"
0.1 µM,0.2 µM,"CC(C)CN(c1ccc(C(C)CC(=O)O)cc1NCc1cncs1)C1CCCCC1 (centres unmarked) [Example 22, 3-(4-(cyclohexyl(isobutyl)amino)-3-((thiazol-5-ylmethyl)amino)phenyl)butanoic acid]"
,0.398 µM,"CC(C)CN(CC(C)C)c1ccc(C(C)CC(=O)O)cc1Nc1nc(-c2ccccc2)no1 (centres unmarked) [Example 51, 3-(4-(diisobutylamino)-3-((3-phenyl-1,2,4-oxadiazol-5-yl)amino)phenyl)butanoic acid]"
,0.0794 µM,"CC(C)CN(c1ccc(C(C)CC(=O)O)cc1Nc1nc(Br)ns1)C1CCCCC1 (centres unmarked) [Example 52, 3-(3-((3-bromo-1,2,4-thiadiazol-5-yl)amino)-4-(cyclohexyl(isobutyl)amino)phenyl)butanoic acid]"
0.0631 µM,,"CC(C)CN(c1ccc([C@H](C)CC(=O)O)cc1NC1CCCCC1)C1CCCCC1 [Example 64, (R)-3-(4-(cyclohexyl(isobutyl)amino)-3-(cyclohexylamino)phenyl)butanoic acid]"
0.0158 µM,,"CC(C)CN(c1ccc(C(C)CC(=O)O)cc1Nc1cccc(C(F)(F)F)c1)C1CCCCC1 (centres unmarked) [Example 65, 3-(4-(cyclohexyl(isobutyl)amino)-3-((3-(trifluoromethyl)phenyl)amino)phenyl)butanoic acid]"
0.00126 µM,,"CC(C)CN(c1ccc(C(C)CC(=O)O)cc1Nc1ccc(C(F)(F)F)cc1)C1CCCCC1 (centres unmarked) [Example 66, 3-(4-(cyclohexyl(isobutyl)amino)-3-((4-(trifluoromethyl)phenyl)amino)phenyl)butanoic acid]"
0.000794 µM,,"CC(C)CN(c1ccc(C(C)CC(=O)O)cc1Nc1ccc(C#N)cc1)C1CCCCC1 (centres unmarked) [Example 67, 3-(3-((4-cyanophenyl)amino)-4-(cyclohexyl(isobutyl)amino)phenyl)butanoic acid]"
0.00316 µM,,"CC(C)CN(c1ccc(C(C)CC(=O)O)cc1Nc1ccccc1)C1CCCCC1 (centres unmarked) [Example 68, 3-(4-(cyclohexyl(isobutyl)amino)-3-(phenylamino)phenyl)butanoic acid]"
,0.158 µM,"CC(C)CN(c1ccc(C(C)CC(=O)O)cc1NCc1ccccc1)C1CCCCC1 (centres unmarked) [Example 69, 3-(3-(Benzylamino)-4-(cyclohexyl(isobutyl)amino)phenyl)butanoic Acid]"
,0.126 µM,"CC(C)CN(c1ccc(C(C)CC(=O)O)cc1NC1CCOCC1)C1CCCCC1 (centres unmarked) [Example 70, 3-(4-(Cyclohexyl(isobutyl)amino)-3-((tetrahydro-2H-pyran-4-yl)amino)phenyl)butanoic Acid]"
,0.316 µM,"CC(C)CN(c1ccc(C(C)CC(=O)O)cc1NC1=N[C@H](c2ccccc2)CO1)C1CCCCC1 (stereo partly drawn) [Example 72, 3-(4-(Cyclohexyl(isobutyl)amino)-3-(((R)-4-phenyl-4,5-dihydrooxazol-2-yl)amino)phenyl)butanoic Acid]"
,0.398 µM,"CC(C)CN(c1ccc(C(C)CC(=O)O)cc1NC1=N[C@@H](C)CS1)C1CCCCC1 (stereo partly drawn) [Example 73, 3-(4-(cyclohexyl(isobutyl)amino)-3-(((S)-4-methyl-4,5-dihydrothiazol-2-yl)amino)phenyl) butanoic acid]"
,0.398 µM,"CC(C)CN(c1ccc(C(C)CC(=O)O)cc1NC1=N[C@H](C)CS1)C1CCCCC1 (stereo partly drawn) [Example 74, 3-(4-(Cyclohexyl(isobutyl)amino)-3-(((R)-4-methyl-4,5-dihydrothiazol-2-yl)amino)phenyl)butanoic Acid]"
